According to the NIST ThermoML archive (doi:10.1016/j.jct.2007.05.004):
Numbers after ± are expanded uncertainties.

Details: 101 kPa, Liquid

SMILES	mass density (293.15 K) [kg/m3]	viscosity (293.15 K) [mPa·s]	mass density (298.15 K) [kg/m3]	viscosity (298.15 K) [mPa·s]	mass density (303.15 K) [kg/m3]	viscosity (303.15 K) [mPa·s]
CCOC(C)=O [ethyl acetate]	900.52 ± 0.29	0.452 ± 0.007	894.43 ± 0.3	0.426 ± 0.006	888.3 ± 0.31	0.403 ± 0.006
CCO [ethanol]	789.75 ± 0.46	1.187 ± 0.015	785.46 ± 0.47	1.082 ± 0.014	781.15 ± 0.47	0.987 ± 0.013
COC(C)=O [methyl ethanoate]	933.56 ± 0.4	0.386 ± 0.006	926.98 ± 0.41	0.367 ± 0.006	920.34 ± 0.42	0.348 ± 0.006
